Assay results reported in patent US9283199B2, “Halogenated aliphatic carboxylic acids, oligomers and/or polymers thereof and their use in devitalizing external and internal neoplasms” (Cimas Limited, priority 2009, dated 2016).
Read-outs that look alike come from different tables or passages of the source.

Columns and labels:
[1] = Storage stability of DPA; type: physicochemical; conditions: stored in sealed brown glass containers between −4° C. and +50° C.
[2] = in vivo; cited from earlier work
[3] = in vivo; cited from earlier work; remark: listed apart in the source
[4] = cited from earlier work
[5] = test system: benign, viral, pre-malignant, non-metastasizing malignant and mucosal tumor lesions; experiment: Clinical study of topical DPA / DPA oligomer treatment of skin pathologies, long term follow-up (Example 1); type: in vivo, human; conditions: all tumor types, 2-8 years follow-up
Protocol: Patients suffering from benign tumors, viral warts or mucosal membraneus tumors were administered with the tetramer form of DPA. In some cases, DPA, as a monomer, was used. Patients suffering from premalignant or malignant tumors were administered with longer oligomers of DPA.
In most cases, the DPA monomer or oligomer was administered only once and without anesthesia or other special conditions. Only in cases of patients suffering from Recklinghausen disease (a multiple form of peripheral Neurofibromatosis), when the number of skin tumor lesions was more than 100, multiple treatment sessions were performed. […]
The safety of DPA oligomer treatment was assessed by evaluating the treated skin lesion appearance, local skin reaction, vital sign measurements, adverse events and concomitant medications taken by the patient. […]
At the 3-week, 6-week and 12-week post-treatment visit(s), a clinical assessment was performed to determine whether treated lesions were visible at the target site. Pigmented lesions, suspected of being malignant, were further evaluated microscopically by the excision of a biopsy sample with a 3 mm margin from the lesion, using the radioelectro technique, and histopathologically examining the sample for evidence of residual or recurrence of tumor. […]

CC(Cl)(Cl)C(=O)O [DPA, 2,2-Dichloropropanoic acid]
chemoanalytical and biological (efficacy) stability [1]: at least 5 years | half-life in human blood [2]: 36 to 72 h | accumulation in animal tissues [3]: does not build up in animal tissues | solubility in water ([4]; DPA and all of its known breakdown products): dissolve easily in water | solubility in water ([4]; at 25° C.): 90 g/100 ml | solubility in organic solvents and lipids [4]: insoluble | Very good result (++++) % ([5]; Total): 82.1% | satisfactory level of clinical results observed, % of the tumors [5]: 99.1%
